{
  "source": "patent US20100152129A1",
  "about": "(priority 2008, published 2010)",
  "key": {"Panc-1 cells [1]": {"test_system": "Panc-1 cells", "test": "Protein expression using high content cell imaging system, and efficacy score", "assay_type": "cell-based", "settings": "for Efficacy score: cumulative over proteins of Table 7", "procedure": "The data was generated using cell imaging system, where, cells after drug exposure were treated with protein specific antibody, followed by detection markers for the antibody. The images were generated and protein levels quantitated as an indication of drug effect.\nMethodology: Panc-1 cells were seeded at a density of 5000 cells per well in 96 well plates and allowed recovery for 24 hrs in 5% CO2 incubator. After recovery, cells were challenged with Gemcitabine (IC30) for 24 hrs. After 24 hrs Gemcitabine was removed and fresh medium was added. […] The combination efficacy was identified against single treatments. At the end of the experiment Panc-1 cells were fixed and permeabilized. All the primary antibodies were added at a concentration according to manufacture protocol. After one hour incubation the cells were washed three times and labeled with secondary antibodies tagged with Dye Light 548 and nucleus was stained with Hoechest3342. After antibody labeling, cells were stained with the Cellomics whole Cell Stain Green to identify the cell's cytoplasmic area. Then all the plates were scanned in Cellomics ArrayScan® VTI HCS Reader. The results were analyzed using software that is designed for measuring the read from the imaging system.\nExpression of proteins listed in Table 7 were determined in terms of fluorescence unit obtained by using target activation algorithm from High content imaging system from Cellomics. • Protein expression data expressed as fluorescent units from Table 7 were used to generate expression ratio by comparing drug treatments (individual or combination) against the normal control with no drug treatment. The ratio of expression which is considered as dys-regulation (1.5 fold above or below the range for up-regulation and down regulation respectively) is subtracted from the normal range (±1.5) and is used to measure the efficacy score.\nExpression ratio=protein expression during drug treatment/protein expression under normal control.\nEfficacy score =Cumulative score (expression ratio−±1.50) for all proteins."}, "[2]": {"settings": "preclinical studies; cited from earlier work"}, "[3]": {"test_system": "xenograft models of colon cancer (HCT-116, SW-480) and non-small cell lung cancer (H-460)", "settings": "oral administration; SCID mice; cited from earlier work"}, "Panc-1 cells [4]": {"test_system": "Panc-1 cells", "test": "CCK-8 based cytotoxicity assay", "assay_type": "cell-based", "excerpt": "CCK-8 based cytotoxicity assay is a sensitive nonradioactive colorimetric assay for determining the number of viable cells in cell proliferation and cytotoxicity assays. WST-8 (2-(2-methoxy-4-nitrophenyl)-3-(4-nitrophenyl)-5-(2,4-disulfophenyl)-2H tetrazolium, monosodium salt) is bioreduced by cellular dehydrogenases to an orange formazan product that is soluble in tissue culture medium. The amount of formazan produced is directly proportional to the number of living cells.\nTest System: The Panc-1 cell line was procured from ATCC (American Tissue type Culture Collection USA, catalog number: CRL-1469) and the frozen vial was stored in liquid nitrogen container.\nPanc-1 cells were seeded at a density of 3000 cells/well in a 96 well plate and allowed to recover for 24 hrs in a CO2 incubator at 37° C. […] The final DMSO concentration was 0.5% in wells. Plates were incubated for 24, 48, and 72 hrs. At the end of incubation CCK-8 was added and kept at 37° C. for 3 hrs following which absorbance was measured at 450 nm."}, "[5]": {"settings": "6 hours post treatment, control 3"}, "[6]": {"settings": "36 hours post treatment, control 98"}},
  "note": "Where “and” joins values, the source holds several entries; their conditions need not be identical. Equal entries are not always repeated.",
  "data": [
    {"smiles": "CN1CC[C@@H](c2c(O)cc(O)c3c(=O)cc(-c4ccc(C(F)(F)F)cc4Cl)oc23)[C@@H]1CO.Cl", "note": "(relative stereo) [P1446A]", "values": [
      {"measurement": "PTN protein expression", "setting": "Panc-1 cells [1]; 6 hours post treatment, control 1", "result": 3, "unit": "fluorescence units"},
      {"measurement": "GADD45-α protein expression", "setting": "Panc-1 cells [1]; [5]", "result": 3, "unit": "fluorescence units"},
      {"measurement": "ID1 protein expression", "setting": "Panc-1 cells [1]; [5]", "result": 38, "unit": "fluorescence units"},
      {"measurement": "P27 protein expression", "setting": "Panc-1 cells [1]; 6 hours post treatment, control 6", "result": 4, "unit": "fluorescence units"},
      {"measurement": "CDC25B protein expression", "setting": "Panc-1 cells [1]; 6 hours post treatment, control 7", "result": 4, "unit": "fluorescence units"},
      {"measurement": "CDKN2A protein expression", "setting": "Panc-1 cells [1]; 6 hours post treatment, control 8", "result": 49, "unit": "fluorescence units"},
      {"measurement": "CCND1 protein expression", "setting": "Panc-1 cells [1]; 6 hours post treatment, control 74", "result": 87, "unit": "fluorescence units"},
      {"measurement": "GAPDH protein expression", "setting": "Panc-1 cells [1]; 6 hours post treatment, control 80", "result": 78, "unit": "fluorescence units"},
      {"measurement": "CASP3 protein expression", "setting": "Panc-1 cells [1]; 6 hours post treatment, control 147", "result": 102, "unit": "fluorescence units"},
      {"measurement": "MMP-1 protein expression", "setting": "Panc-1 cells [1]; 6 hours post treatment, control 501", "result": 235, "unit": "fluorescence units"},
      {"measurement": "COX15 protein expression", "setting": "Panc-1 cells [1]; 6 hours post treatment, control 627", "result": 628, "unit": "fluorescence units"},
      {"measurement": "COX2 protein expression", "setting": "Panc-1 cells [1]; 6 hours post treatment, control 635", "result": 457, "unit": "fluorescence units"},
      {"measurement": "BAX protein expression", "setting": "Panc-1 cells [1]; 6 hours post treatment, control 819", "result": 421, "unit": "fluorescence units"},
      {"measurement": "VEGF protein expression", "setting": "Panc-1 cells [1]; 6 hours post treatment, control 829", "result": 235, "unit": "fluorescence units"},
      {"measurement": "BCL2 protein expression", "setting": "Panc-1 cells [1]; 6 hours post treatment, control 830", "result": 587, "unit": "fluorescence units"},
      {"measurement": "pRB protein expression", "setting": "Panc-1 cells [1]; 6 hours post treatment, control 1240", "result": 1489, "unit": "fluorescence units"},
      {"measurement": "Efficacy score", "setting": "Panc-1 cells [1]; 6 hours", "result": 2.1},
      {"measurement": "GADD45-α protein expression", "setting": "Panc-1 cells [1]; 16 hours post treatment, control 13", "result": 46, "unit": "fluorescence units"},
      {"measurement": "CDC25B protein expression", "setting": "Panc-1 cells [1]; 16 hours post treatment, control 54", "result": 45, "unit": "fluorescence units"},
      {"measurement": "CDKN2A protein expression", "setting": "Panc-1 cells [1]; 16 hours post treatment, control 64", "result": 55, "unit": "fluorescence units"},
      {"measurement": "P27 protein expression", "setting": "Panc-1 cells [1]; 16 hours post treatment, control 67", "result": 37, "unit": "fluorescence units"},
      {"measurement": "PTN protein expression", "setting": "Panc-1 cells [1]; 16 hours post treatment, control 76", "result": 34, "unit": "fluorescence units"},
      {"measurement": "ID1 protein expression", "setting": "Panc-1 cells [1]; 16 hours post treatment, control 77", "result": 67, "unit": "fluorescence units"},
      {"measurement": "CCND1 protein expression", "setting": "Panc-1 cells [1]; 16 hours post treatment, control 90", "result": 85, "unit": "fluorescence units"},
      {"measurement": "GAPDH protein expression", "setting": "Panc-1 cells [1]; 16 hours post treatment, control 100", "result": 100, "unit": "fluorescence units"},
      {"measurement": "CASP3 protein expression", "setting": "Panc-1 cells [1]; 16 hours post treatment, control 202", "result": 1157, "unit": "fluorescence units"},
      {"measurement": "VEGF protein expression", "setting": "Panc-1 cells [1]; 16 hours post treatment, control 579", "result": 420, "unit": "fluorescence units"},
      {"measurement": "BCL2 protein expression", "setting": "Panc-1 cells [1]; 16 hours post treatment, control 644", "result": 546, "unit": "fluorescence units"},
      {"measurement": "BAX protein expression", "setting": "Panc-1 cells [1]; 16 hours post treatment, control 711", "result": 688, "unit": "fluorescence units"},
      {"measurement": "COX15 protein expression", "setting": "Panc-1 cells [1]; 16 hours post treatment, control 718", "result": 896, "unit": "fluorescence units"},
      {"measurement": "MMP-1 protein expression", "setting": "Panc-1 cells [1]; 16 hours post treatment, control 929", "result": 420, "unit": "fluorescence units"},
      {"measurement": "COX2 protein expression", "setting": "Panc-1 cells [1]; 16 hours post treatment, control 1109", "result": 1063, "unit": "fluorescence units"},
      {"measurement": "pRB protein expression", "setting": "Panc-1 cells [1]; 16 hours post treatment, control 2583", "result": 1721, "unit": "fluorescence units"},
      {"measurement": "Efficacy score", "setting": "Panc-1 cells [1]; 16 hours", "result": 10.3},
      {"measurement": "GADD45-α protein expression", "setting": "Panc-1 cells [1]; 36 hours post treatment, control 19", "result": 43, "unit": "fluorescence units"},
      {"measurement": "COX2 protein expression", "setting": "Panc-1 cells [1]; 36 hours post treatment, control 86", "result": 43, "unit": "fluorescence units"},
      {"measurement": "P27 protein expression", "setting": "Panc-1 cells [1]; 36 hours post treatment, control 96", "result": 65, "unit": "fluorescence units"},
      {"measurement": "CCND1 protein expression", "setting": "Panc-1 cells [1]; [6]", "result": 55, "unit": "fluorescence units"},
      {"measurement": "CDC25B protein expression", "setting": "Panc-1 cells [1]; [6]", "result": 70, "unit": "fluorescence units"},
      {"measurement": "GAPDH protein expression", "setting": "Panc-1 cells [1]; [6]", "result": 63, "unit": "fluorescence units"},
      {"measurement": "ID1 protein expression", "setting": "Panc-1 cells [1]; [6]", "result": 83, "unit": "fluorescence units"},
      {"measurement": "PTN protein expression", "setting": "Panc-1 cells [1]; 36 hours post treatment, control 100", "result": 99, "unit": "fluorescence units"},
      {"measurement": "CASP3 protein expression", "setting": "Panc-1 cells [1]; 36 hours post treatment, control 265", "result": 1220, "unit": "fluorescence units"},
      {"measurement": "BAX protein expression", "setting": "Panc-1 cells [1]; 36 hours post treatment, control 715", "result": 1670, "unit": "fluorescence units"},
      {"measurement": "COX15 protein expression", "setting": "Panc-1 cells [1]; 36 hours post treatment, control 722", "result": 1878, "unit": "fluorescence units"},
      {"measurement": "VEGF protein expression", "setting": "Panc-1 cells [1]; 36 hours post treatment, control 1093", "result": 1195, "unit": "fluorescence units"},
      {"measurement": "MMP-1 protein expression", "setting": "Panc-1 cells [1]; 36 hours post treatment, control 1316", "result": 1195, "unit": "fluorescence units"},
      {"measurement": "BCL2 protein expression", "setting": "Panc-1 cells [1]; 36 hours post treatment, control 1410", "result": 1330, "unit": "fluorescence units"},
      {"measurement": "CDKN2A protein expression", "setting": "Panc-1 cells [1]; 36 hours post treatment, control 1441", "result": 1395, "unit": "fluorescence units"},
      {"measurement": "pRB protein expression", "setting": "Panc-1 cells [1]; 36 hours post treatment, control 2840", "result": 1978, "unit": "fluorescence units"},
      {"measurement": "Efficacy score", "setting": "Panc-1 cells [1]; 36 hours", "result": 7.6},
      {"measurement": "oral bioavailability", "setting": "[2]", "result": "good oral bioavailability"},
      {"measurement": "tumor growth inhibition", "setting": "[3]", "result": "significant tumor growth inhibition"},
      {"measurement": "% Cytotoxicity", "setting": "Panc-1 cells [4]; P1446A 30 nM, 24 hrs", "result": 29.825, "unit": "%"},
      {"measurement": "% Cytotoxicity", "setting": "Panc-1 cells [4]; P1446A 30 nM, 72 hrs", "result": 23.33, "unit": "%"},
      {"measurement": "% Cytotoxicity", "setting": "Panc-1 cells [4]; P1446A 100 nM, 24 hrs", "result": 26.525, "unit": "%"},
      {"measurement": "% Cytotoxicity", "setting": "Panc-1 cells [4]; P1446A 100 nM, 48 hrs", "result": 24.596, "unit": "%"},
      {"measurement": "% Cytotoxicity", "setting": "Panc-1 cells [4]; P1446A 300 nM, 24 hrs", "result": 34.36, "unit": "%"},
      {"measurement": "% Cytotoxicity", "setting": "Panc-1 cells [4]; P1446A 300 nM, 48 hrs", "result": 28.636, "unit": "%"},
      {"measurement": "% Cytotoxicity", "setting": "Panc-1 cells [4]; P1446A 300 nM, 72 hrs, hydrochloride", "result": "31.05% and 31.075%"}
    ]}
  ]
}
